Where two headings read alike, the source gives them in different places.
Legend:
[1] = test system: MCF7 cells; experiment: AlamarBlue cell viability assay, MCF7; type: cell-based, human; conditions: read-out: Cell Viability (MCF7 Cells) IC50 ± SD
Description: (§1) Next, we determined the potential functional effects of novel ATBA compounds on the viability of MCF7 cells using an AlamarBlue® cell viability assay. […] We also determined the functional efficacy of the 4c compound in additional ER+ MC cell lines using an AlamarBlue® cell viability assay.
The human Michigan Cancer Foundation-7 (MCF7) cell line was obtained from the American Type Culture Collection (ATCC, Rockville, Gaithersburg, MD, USA) and was cultured as per ATCC propagation instructions.
(§2) AlamarBlue®, 3D Matrigel, and luciferase assay: AlamarBlue® cell viability kits were obtained from ThemoFisher Scientific (Waltham, Massachusetts, USA), and the assay was performed as previously described. 3D Matrigel assays were performed as previously described. Luciferase assays were performed as previously described. Briefly, transfections were carried out in triplicate using 1 μg of the appropriate luciferase reporter construct or empty vector along with 0.1 μg of Renilla luciferase construct as a control for transfection efficiency. Luciferase activities were measured using the Dual-Luciferase Assay System (Promega Corp, Madison, WI, USA).

[2] = target: T1, ERα (Homo sapiens, UniProt P03372); experiment: ER-alpha competitive binding assay (PolarScreen ER Alpha Competitor, fluorescence polarization); conditions: read-out: CBA IC50 + SD (competitive binding affinity)
T1 construct: purchased Life Technologies
T1 sequence (P03372 1-595): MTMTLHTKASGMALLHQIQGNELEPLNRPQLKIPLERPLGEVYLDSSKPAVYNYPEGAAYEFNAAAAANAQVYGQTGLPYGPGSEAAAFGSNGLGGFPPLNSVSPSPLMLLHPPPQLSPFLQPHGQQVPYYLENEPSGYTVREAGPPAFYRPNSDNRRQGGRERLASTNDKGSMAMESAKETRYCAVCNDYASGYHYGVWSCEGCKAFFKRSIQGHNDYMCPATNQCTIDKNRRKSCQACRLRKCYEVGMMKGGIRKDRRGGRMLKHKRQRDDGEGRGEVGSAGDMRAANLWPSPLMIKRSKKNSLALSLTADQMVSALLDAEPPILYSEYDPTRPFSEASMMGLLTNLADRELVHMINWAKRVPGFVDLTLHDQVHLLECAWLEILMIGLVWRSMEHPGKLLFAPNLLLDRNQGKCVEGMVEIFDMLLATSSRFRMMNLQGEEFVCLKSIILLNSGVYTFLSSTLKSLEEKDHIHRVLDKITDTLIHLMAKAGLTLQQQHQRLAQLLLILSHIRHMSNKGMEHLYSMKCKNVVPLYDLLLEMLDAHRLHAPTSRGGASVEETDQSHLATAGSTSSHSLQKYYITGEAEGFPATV
Excerpt: First, to rank the novel biphenyl derivatives based on binding affinity to ERα, a commercially available fluorescence polarization assay kit (PolarScreen™ ER Alpha Competitor assay) was utilized. […] The smaller size of the free molecule can be discerned by increased mobility in the solution, which is detected by fluorescence polarization (FP). A shift in the FP value in the presence of the test compounds is used to determine the relative affinity of test compounds for ERα.
The assay was performed as per the manufacturer’s instructions. The Fluorescence polarization value (mP) of each well on a fluorescence polarization plate was measured using fluorescence polarization Tecan infinite M1000PRO multimode microplate reader (Tecan, Switzerland). Data were modelled using GraphPad Prism® software from GraphPad Software, Inc..

[3] = test system: MDA-MB-361 cells; experiment: AlamarBlue cell viability assay, MDA-MB-361; type: cell-based; conditions: Homo sapiens
Description: as §1, §2

[4] = vNN-ADMET prediction: MRTD; conditions: relative to TAM
[5] = test system: BT474 cells; experiment: AlamarBlue cell viability assay, BT474; type: cell-based; conditions: Homo sapiens, BT-474
Description: as §1, §2

[6] = test system: oestrogen response element (ERE) transcriptional activity (ERα); experiment: ERE-luc luciferase reporter assay in MCF7 cells; type: cell-based, human; conditions: for antagonist activity against ERα (luciferase activity): MCF7 cells, with E2 10^-8 M, compounds 10^-10 to 10^-4 M
Description: as §2, with “Next, to evaluate the activity of the synthesized compounds as agonists or antagonists to ERα, a reporter assay was performed with ERE-luc. […] AlamarBlue®,” for “AlamarBlue®,”, “USA). […] (lower panel). MCF7 cells were co-transfected with ERE-luc (firefly luciferase) and Renilla luciferase constructs as described in the Materials and Methods section. […] Results are shown as mean (+SD for triplicate transfection).” for “USA).”

[7] = test system: MCF7 cell-generated spheroids; experiment: 3D Matrigel spheroid cell viability; type: cell-based, human; conditions: preformed MCF7 spheroids in 3D Matrigel, 5 µM, 72 h
Description: Furthermore, we examined the effect of the novel biphenyl derivatives on preformed spheroids generated using MC cells in 3D Matrigel (Figure 2).
as §2
Figure 2 Cell viability of MCF7 cell-generated spheroids after culture in 3D Matrigel for 10 days. Preformed MCF7 cell-generated spheroids were treated with compounds for 72 h before assessing cell viability. A concentration of 5 µM was used for the treatment. The cell viability of the MCF7 cell-generated spheroids was evaluated using an AlamarBlue® viability assay as described in the Materials and Methods section. Bars are the mean of triplicate experiments; bars, ±SD. ** P < 0.001, * P < 0.05.

[8] = test system: CCND1 protein expression; experiment: Western blot of CCND1 in MCF7 cells; type: cell-based, human
Description: Increased expression of CCND1 is associated with approximately 50% of breast cancer cases and directly regulated by ER signalling. To determine functional effects downstream of ERα, we examined the effect of ATBA compounds on hCCND1 protein expression in MC cells. […] Western blot analysis: Western blot analysis was performed as previously described, using a primary monoclonal antibody against CCND1 and β-ACTIN obtained from Cell Signalling, Danvers, Massachusetts, USA. Quantification of blot was performed by use of ImageJ software from NIH, USA (http://imagej.nih.gov/ij/) as described previously. […] Soluble whole-cell extracts were run on an SDS-PAGE and immunoblotted. β-ACTIN was used as input control for cell lysate (left side). The predicted sizes of detected protein bands in kDa are shown on the left side. The average of three independent densitometry analyses of CCND1 and β-ACTIN is shown above (right side) by use of Image J software from NIH, USA (http://imagej.nih.gov/ij/) as described previously.

[9] = test system: T47D cells; experiment: AlamarBlue cell viability assay, T47D; type: cell-based; conditions: Homo sapiens
Description: as §1, §2

Compound	IC50 ([1]; Homo sapiens, MCF7, AlamarBlue)	IC50 [2]	IC50 ([1]; AlamarBlue)	antagonist activity against ERα (luciferase activity) [6]	cell viability of spheroids compared to vehicle (DMSO) [7]	other results
COc1ccc(Nc2ccc(Cl)cc2)cc1C12CC3CC(CC(C3)C1)C2 [4a, 3-(Adamantan-1-yl)-N-(4-chlorophenyl)-4-methoxyaniline]	> 50 µM	0.34 µM				
COc1ccc(Nc2ccc(OC)c(C34CC5CC(CC(C5)C3)C4)c2)cc1 [4b, 3-(Adamantan-1-yl)-4-methoxy-N-(4-methoxyphenyl) aniline]	> 50 µM	0.202 µM				
COc1ccc(Nc2ccc(C(F)(F)F)cc2)cc1C12CC3CC(CC(C3)C1)C2 [4c, 3-(Adamantan-1-yl)-4-methoxy-N-(4-(trifluoromethyl)phenyl) aniline]	6.4 µM	0.0628 µM	6.29 ± 2.41 µM	most potent antagonist activity against ERα in a dosage-dependent manner	significantly decreased cell viability	IC50 [3]: 8.31 µM; predicted maximum recommended therapeutic dose compared to TAM [4]: approximately four times higher; IC50 [5]: 6.36 µM; IC50 ([6]; Homo sapiens, MCF7): 0.83 ± 0.06 µM; antagonist activity against ERα (luciferase activity) ([6]; listed as AMTA): significantly deceased ERE transcriptional activity; inhibitory effect on spheroids compared to TAM-treated spheroids [7]: significant inhibitory effect compared to TAM-treated MC cell-generated spheroids; inhibitory effect on spheroids compared to TAM-treated spheroids ([7]; listed as AMTA): superior inhibitory effect compared to tamoxifen-treated MC cell spheroids; CCND1 protein levels [8]: most potently decreased the protein levels of CCND1 in MC cells in the nanomolar range; CCND1 protein levels ([8]; listed as AMTA): significantly decreased protein levels of oestrogen-regulated CCND1 in a dose-dependent manner; IC50 [9]: 7.38 µM
COc1ccc(Nc2cccc(O)c2)cc1C12CC3CC(CC(C3)C1)C2 [4d, 3-((3-(Adamantan-1-yl)-4-methoxyphenyl)amino) phenol]	8.81 ± 1.85 µM	0.0826 µM		most potent antagonist activity against ERα in a dosage-dependent manner	significantly decreased cell viability	
COc1ccc(Nc2ccc(C)cc2)cc1C12CC3CC(CC(C3)C1)C2 [4f, 3-(Adamantan-1-yl)-4-methoxy-N-(p-tolyl) aniline]	12.3 ± 3.77 µM	0.0985 µM		most potent antagonist activity against ERα in a dosage-dependent manner	significantly decreased cell viability	
COc1ccc(Nc2cccnc2)cc1C12CC3CC(CC(C3)C1)C2 [4g]	12.1 ± 3.07 µM	0.129 µM		most potent antagonist activity against ERα in a dosage-dependent manner	significantly decreased cell viability	
COc1ccc(Nc2ccc(C)cn2)cc1C12CC3CC(CC(C3)C1)C2 [4h]	~50 µM	0.189 µM	42.2 ± 9.31 µM			
COc1ccc(Nc2cccc3ccccc23)cc1C12CC3CC(CC(C3)C1)C2 [4i]	~50 µM	0.264 µM	47.6 ± 7.48 µM			

From publication PMC7913524, “Novel Biphenyl Amines Inhibit Oestrogen Receptor (ER)-α in ER-Positive Mammary Carcinoma Cells” (Molecules, 2021)
